Assay results as given in the supplement of paper PMC10307832.

How the values were obtained:
Test in all cases: relative viability (nuclei count vs DMSO), 5 days (fraction); higher = more cells survive
LCLC-103H = tested on: LCLC-103H
Summary of the method: (§1)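 The day after seeding in 1536-well plates, lung cancer cell lines were treated by pin tool with a single drug, or with a fixed anchor-drug dose together with five library-drug doses (not always all listed) in √10 steps. After 5 days, a combined fix-and-stain solution (final 0.05% Triton X-100, 1% formaldehyde, 1 ug/ml Hoechst) was added. Nuclei counted on 4× images gave relative viability as treated counts over vehicle counts, reported as the median of duplicate plates.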

LXF-289 = tested on: LXF-289
Summary of the method: as §1

NCI-H1355 = tested on: NCI-H1355
Summary of the method: as §1

NCI-H1563 = tested on: NCI-H1563
Summary of the method: as §1

NCI-H1651 = tested on: NCI-H1651
Summary of the method: as §1

NCI-H1755 = tested on: NCI-H1755
Summary of the method: as §1

NCI-H1792 = tested on: NCI-H1792
Summary of the method: as §1

NCI-H1915 = tested on: NCI-H1915
Summary of the method: as §1

NCI-H2347 = tested on: NCI-H2347
Summary of the method: as §1

NCI-H3122 = tested on: NCI-H3122
Summary of the method: as §1

NCI-H322M = tested on: NCI-H322M
Summary of the method: as §1

NCI-H441 = tested on: NCI-H441
Summary of the method: as §1

NCI-H460 = tested on: NCI-H460
Summary of the method: as §1

NCI-H520 = tested on: NCI-H520
Summary of the method: as §1

NCI-H596 = tested on: NCI-H596
Summary of the method: as §1

NCI-H661 = tested on: NCI-H661
Summary of the method: as §1

NCI-H727 = tested on: NCI-H727
Summary of the method: as §1

PC-14 = tested on: PC-14
Summary of the method: as §1

RERF-LC-KJ = tested on: RERF-LC-KJ
Summary of the method: as §1

SK-MES-1 = tested on: SK-MES-1
Summary of the method: as §1

CC(=O)O[C@@]12CO[C@@H]1C[C@H](O)[C@@]1(C)C(=O)[C@H](O)C3=C(C)[C@@H](OC(=O)[C@H](O)[C@@H](NC(=O)OC(C)(C)C)c4ccccc4)C[C@@](O)([C@@H](OC(=O)c4ccccc4)[C@H]21)C3(C)C [Docetaxel] + C[C@@H](Oc1cc(-c2cnn(C3CCNCC3)c2)cnc1N)c1c(Cl)ccc(F)c1Cl [Crizotinib] (partner 1 µM)
relative viability (LCLC-103H; first compound 0.0002 µM): 1.19 | relative viability (LCLC-103H; first compound 0.000632 µM): 1.04 | relative viability (LCLC-103H; first compound 0.002 µM): 0.776 | relative viability (LCLC-103H; first compound 0.006325 µM): 0.674 | relative viability (LCLC-103H; first compound 0.02 µM): 0.756 | relative viability (LXF-289; first compound 0.0002 µM): 0.819 | relative viability (LXF-289; first compound 0.000632 µM): 0.483 | relative viability (LXF-289; first compound 0.002 µM): 0.452 | relative viability (LXF-289; first compound 0.006325 µM): 0.119 | relative viability (LXF-289; first compound 0.02 µM): 0.139 | relative viability (NCI-H1355; first compound 0.0002 µM): 1.01 | relative viability (NCI-H1355; first compound 0.000632 µM): 0.893 | relative viability (NCI-H1355; first compound 0.002 µM): 0.456 | relative viability (NCI-H1355; first compound 0.006325 µM): 0.241 | relative viability (NCI-H1355; first compound 0.02 µM): 0.198 | relative viability (NCI-H1563; first compound 0.0002 µM): 0.829 | relative viability (NCI-H1563; first compound 0.000632 µM): 0.926 | relative viability (NCI-H1563; first compound 0.002 µM): 0.928 | relative viability (NCI-H1563; first compound 0.006325 µM): 0.799 | relative viability (NCI-H1563; first compound 0.02 µM): 0.77 | relative viability (NCI-H1651; first compound 0.0002 µM): 0.835 | relative viability (NCI-H1651; first compound 0.000632 µM): 0.876 | relative viability (NCI-H1651; first compound 0.002 µM): 0.612 | relative viability (NCI-H1651; first compound 0.006325 µM): 0.168 | relative viability (NCI-H1651; first compound 0.02 µM): 0.167 | relative viability (NCI-H1755; first compound 0.0002 µM): 0.833 | relative viability (NCI-H1755; first compound 0.000632 µM): 0.535 | relative viability (NCI-H1755; first compound 0.002 µM): 0.503 | relative viability (NCI-H1755; first compound 0.006325 µM): 0.382 | relative viability (NCI-H1755; first compound 0.02 µM): 0.353 | relative viability (NCI-H1792; first compound 0.0002 µM): 0.929 | relative viability (NCI-H1792; first compound 0.000632 µM): 0.905 | relative viability (NCI-H1792; first compound 0.002 µM): 0.646 | relative viability (NCI-H1792; first compound 0.02 µM): 0.115 | relative viability (NCI-H1915; first compound 0.0002 µM): 0.892 | relative viability (NCI-H1915; first compound 0.000632 µM): 0.803 | relative viability (NCI-H1915; first compound 0.002 µM): 0.325 | relative viability (NCI-H1915; first compound 0.006325 µM): 0.181 | relative viability (NCI-H1915; first compound 0.02 µM): 0.141 | relative viability (NCI-H2347; first compound 0.0002 µM): 0.736 | relative viability (NCI-H2347; first compound 0.000632 µM): 0.702 | relative viability (NCI-H2347; first compound 0.002 µM): 0.695 | relative viability (NCI-H2347; first compound 0.006325 µM): 0.589 | relative viability (NCI-H2347; first compound 0.02 µM): 0.422 | relative viability (NCI-H3122; first compound 0.0002 µM): 0.241 | relative viability (NCI-H3122; first compound 0.000632 µM): 0.257 | relative viability (NCI-H3122; first compound 0.002 µM): 0.26 | relative viability (NCI-H3122; first compound 0.006325 µM): 0.207 | relative viability (NCI-H3122; first compound 0.02 µM): 0.178 | relative viability (NCI-H322M; first compound 0.0002 µM): 0.817 | relative viability (NCI-H322M; first compound 0.000632 µM): 0.91 | relative viability (NCI-H322M; first compound 0.002 µM): 0.71 | relative viability (NCI-H322M; first compound 0.006325 µM): 0.233 | relative viability (NCI-H322M; first compound 0.02 µM): 0.405 | relative viability (NCI-H441; first compound 0.0002 µM): 0.802 | relative viability (NCI-H441; first compound 0.000632 µM): 0.472 | relative viability (NCI-H441; first compound 0.002 µM): 0.29 | relative viability (NCI-H441; first compound 0.006325 µM): 0.193 | relative viability (NCI-H441; first compound 0.02 µM): 0.181 | relative viability (NCI-H460; first compound 0.0002 µM): 0.73 | relative viability (NCI-H460; first compound 0.000632 µM): 0.673 | relative viability (NCI-H460; first compound 0.002 µM): 0.0086 | relative viability (NCI-H460; first compound 0.006325 µM): 0.0137 | relative viability (NCI-H460; first compound 0.02 µM): 0.0093 | relative viability (NCI-H520; first compound 0.0002 µM): 0.672 | relative viability (NCI-H520; first compound 0.000632 µM): 0.784 | relative viability (NCI-H520; first compound 0.002 µM): 0.196 | relative viability (NCI-H520; first compound 0.006325 µM): 0.155 | relative viability (NCI-H520; first compound 0.02 µM): 0.156 | relative viability (NCI-H596; first compound 0.0002 µM): 0.986 | relative viability (NCI-H596; first compound 0.000632 µM): 0.798 | relative viability (NCI-H596; first compound 0.002 µM): 1.01 | relative viability (NCI-H596; first compound 0.006325 µM): 0.475 | relative viability (NCI-H596; first compound 0.02 µM): 0.462 | relative viability (NCI-H661; first compound 0.000632 µM): 1.06 | relative viability (NCI-H661; first compound 0.002 µM): 0.914 | relative viability (NCI-H661; first compound 0.006325 µM): 0.68 | relative viability (NCI-H661; first compound 0.02 µM): 0.503 | relative viability (NCI-H727; first compound 0.0002 µM): 0.862 | relative viability (NCI-H727; first compound 0.000632 µM): 0.815 | relative viability (NCI-H727; first compound 0.002 µM): 0.344 | relative viability (NCI-H727; first compound 0.006325 µM): 0.298 | relative viability (NCI-H727; first compound 0.02 µM): 0.24 | relative viability (PC-14; first compound 0.0002 µM): 0.932 | relative viability (PC-14; first compound 0.000632 µM): 0.861 | relative viability (PC-14; first compound 0.002 µM): 0.317 | relative viability (PC-14; first compound 0.006325 µM): 0.0812 | relative viability (PC-14; first compound 0.02 µM): 0.0748 | relative viability (RERF-LC-KJ; first compound 0.0002 µM): 0.868 | relative viability (RERF-LC-KJ; first compound 0.000632 µM): 0.7 | relative viability (RERF-LC-KJ; first compound 0.002 µM): 0.509 | relative viability (RERF-LC-KJ; first compound 0.006325 µM): 0.196 | relative viability (RERF-LC-KJ; first compound 0.02 µM): 0.166 | relative viability (SK-MES-1; first compound 0.0002 µM): 0.937 | relative viability (SK-MES-1; first compound 0.000632 µM): 0.845 | relative viability (SK-MES-1; first compound 0.002 µM): 0.287 | relative viability (SK-MES-1; first compound 0.006325 µM): 0.221 | relative viability (SK-MES-1; first compound 0.02 µM): 0.177
